Measurements published in patent US20040137455A1, “Diagnosis of cancer or benign tumor using the aberrant expression product of the klk4 gene” (priority 2001, published 2004).

How the values were obtained:
[1] = tested on: K4 protein in the KLE cell line; assay: Western analysis of K4 protein levels in KLE cells after steroid treatment; assay type: cell-based, human; conditions: KLE endometrial cancer cell line, 10 nmol/L steroid, 48 h, 200 μg intracellular protein
Method: The endometrial cancer cell lines, Ishikawa (well differentiated), HEC1A, HEC1B, RL95-2 (moderately differentiated) and KLE (poorly differentiated) and the prostate cancer cell line LNCaP, used for a control, were obtained from the American Type Culture Collection, Rockville, Md. Prostate and kidney control tissue was obtained from Royal Brisbane Hospital and Princess Alexandra Hospital respectively. All cell lines were cultured in DMEM (Life Technologies, Rockville, Md.) with 10% FCS, 50 U/mL Penicillin G and 50 μg/mL Streptomycin (CSL Biosciences, Melbourne, Australia) at 37 C and 5% CO2. The regulation studies were performed in triplicate in the KLE cell line using phenol red and FCS-free media. After 24 h, fresh media was supplemented with 10 nmol/L 17β-estradiol or progesterone, (Sigma Chemical Company, St Louis, Mo.) and the cells were maintained for 48 h with these steroids. In addition, […] progesterone was added to one group of oestrogen-treated cells after 24 h. […] Detection was determined using X-ray film and visualisation of the chemiluminescence signal. Fold changes in the level of signal were assessed using the Hewlett Packard Scan Jet IICX and ImagQuant™ 4.21A software (Molecular Dynamics, Amersham)

[2] = tested on: hK4 intracellular levels in OVCAR-3; assay: Western blot and densitometry of hK4 intracellular levels in OVCAR-3 cells (oestrogen regulation); assay type: cell-based, human
Description: Normal ovary and ovarian tumour samples were obtained at surgery from women who underwent laparotomy for benign and malignant conditions in the Department of Obstetrics and Gynaecology at the Royal Women's Hospitals and Monash Medical Centre. Ethics approval was obtained from the respective institutional Ethics Committees and informed consent was obtained from all patients. Epithelial cells from normal, benign and malignant ovaries were isolated from some of these tissue samples and the primary cultured cells were grown in M199 (Sigma, St. Louis, Mo., USA) and MCDB 105 (Sigma) media supplemented with 10% FCS and 10 ng/mL human epidermal growth factor (Boehringer Mannheim, Germany) (17). The ovarian cancer cell lines, that were used in this study, were derived from late stage serous carcinomas with well (PEO14 and OAW42), moderate (SKOV-3 and OVCAR-3) or poor (JAM, CI-80-13S, PEO1 and PEO4) differentiation. SKOV-3 and OVCAR-3 were from American Type Culture Collection, and the remainder have been described previously (18, 19). These cell lines were grown in RPMI (Life Technologies, Inc., Gaithersburg. MD, USA) supplemented with 10% FCS. For the oestrogen regulation study, OVCAR-3 cells were grown to 50% confluency. […]

Question: For CC(=O)[C@H]1CC[C@H]2[C@@H]3CCC4=CC(=O)CC[C@]4(C)[C@H]3CC[C@]12C [progesterone], which “levels of K4 protein elevated compared to the control” value [1] is on record?
Answer: 27 fold

Question: Which “effect on intracellular hK4 levels (densitometry of Western blot)” value ([2]; OVCAR-3, 100 nM, over 30 hrs) does the source give for C[C@]12CC[C@@H]3c4ccc(O)cc4CC[C@H]3[C@@H]1CC[C@@H]2O [estradiol, 17β-estradiol] here?
Answer: up-regulation

Question: And the “up-regulation of hK4 intracellular levels” value ([2]; OVCAR-3 ovarian carcinoma cell line, 100 nM, 8-30 hr, time dependent)?
Answer: 1.5-4 fold

Question: And the “levels of K4 protein elevated compared to the control” value [1]?
Answer: 16 fold
